Test results taken from patent publication US8623859B2, “Bradykinin B1 antagonists” (Evotec AG, priority 2008, dated 2014).
Counter-ions that a name gives are not always drawn.

Target: T1, human B1 (Homo sapiens, UniProt P46663)
T1 construct: host or cells: CHO-K1
T1 sequence (P46663 1-353): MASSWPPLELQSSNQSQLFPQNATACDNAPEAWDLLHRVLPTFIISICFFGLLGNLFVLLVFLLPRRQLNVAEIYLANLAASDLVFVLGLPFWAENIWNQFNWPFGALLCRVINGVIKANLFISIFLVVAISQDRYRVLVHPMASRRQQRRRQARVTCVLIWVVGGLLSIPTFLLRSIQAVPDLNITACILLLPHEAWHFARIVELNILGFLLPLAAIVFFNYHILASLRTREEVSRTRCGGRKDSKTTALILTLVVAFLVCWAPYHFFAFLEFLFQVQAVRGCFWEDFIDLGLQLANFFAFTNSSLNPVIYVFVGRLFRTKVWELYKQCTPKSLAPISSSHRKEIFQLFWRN
Test: Calcium flux assay for Bradykinin B1 antagonist, CHO-K1 cell line expressing human B1
Assay type: cell-based
Details: CHO-K1 cells expressing human B1, agonist Lys-(Des-Arg)-Bradykinin, read-out: Potency (IC50 value against human B1)
Protocol: Calcium Flux Assay for Bradykinin B1 Antagonist
The potency to inhibit the Bradykinin B1 receptors was determined for the compounds of this invention in a cell-based fluorescent calcium-mobilization assay. The assay measures the ability of test compounds to inhibit Bradykinin B1 receptor agonist-induced increase of intracellular free Ca^2+ in cell lines expressing B1.
The change of the intracellular Ca^2+ concentration is monitored with a specifically designed fluorescent plate reader (FlexStation, Molecular Devices).
CHO-K1 cell line expressing human B1 was purchased from Euroscreen (Gosselies, Belgium, with reference name hBl-D1). CHO-K1 cell lines expressing rat B1 or mouse B1 were established in the following way: the full-length receptor-coding cDNA clones were obtained by PCR performed on rat or mouse brain cDNAs. The respective cDNAs were cloned into an expression vector under the control of a CMV promotor. The resultant plasmids were introduced into CHO-K1 cells with liposome technology (FuGENE; Roche Diagnostics, Basel), according to the standard protocols described by the manufacturer. Cell lines expressing a Bradykinin receptor were selected in the culture medium containing 400 μg/ml G418 (Sigma). From selected cell populations, monoclonal cell lines were isolated by single cell cloning. The expression of Bradykinin receptors was confirmed by immunofluorescence staining of the cells, as well as by calcium flux assay.
Human B1-expressing cells were grown in Nutrient Mixture Ham's F12 (Sigma) containing 10% Foetal bovine serum (Sigma) and 400 μg/ml G418 (Sigma), 5 μg/ml puromycim (Sigma); Rat B1 and mouse B1-expressing cells were grown in DMEM/F12 medium (Sigma) containing 10% Foetal bovine serum (Sigma) and 400 μg/ml G418 (Sigma).
For the calcium flux assay, 80% confluent cells were detached from the culture vessels with Versene (Gibco; for human B1 cell-line) or with 1× trypsin-EDTA solution (Sigma; for rodent B1 cell-line), and seeded into 384-well plates (Cell binding Surface; Corning, N.Y.; #3683) at a density of 15,000 cells per well for human B1 or at a density of 20,000 cells per well for rodent B1. Cells were seeded in a volume of 50 μl in medium without antibiotics and incubated overnight in a humidified atmosphere with 5% CO2 at 37° C. The following day, the medium was replaced with 20 μl of 5 μM Fluo-4AM dye (Molecular Probes) in assay buffer (2.5 mM probenicid, 1 mg/ml pluronic acid, 0.1% BSA, 135 mM NaCl, 5 mM KCl, 1.8 mM CaCl, 1 mM MgCl2, 10 mM HEPES, 5.6 mM glucose, 0.05% gelatine, pH 7.4). The calcium indicator loaded cells were incubated at 37° C. for 2 hrs. Extracellular dye was then removed and each well was filled with 45 μl of assay buffer. Cell plates were kept in dark until used. Test compounds were assayed at 8 concentrations in triplicate. Serial 10-fold dilutions in 100% DMSO were made at a 100-times higher concentration than the final concentration, and then diluted 1:10 in assay buffer. 5 μl of each diluted compound was added to the well of cell plates (yielding final concentration with 1% DMSO), and incubated for 30 min at 25° C. before the addition of B1 agonist on the FlexStation.
The addition of agonist 20 μl per well to the assay plate was carried out on the FlexStation while continuously monitoring Ca^2+-dependent fluorescence at 538 nm. The integrated values, normalized with the background fluorescence, were plotted against the logarithm of the antagonist concentrations.

SMILES | IC50 [nM]
COc1cc(C)c(S(=O)(=O)N(C)Cc2cc(C(=O)N(C)Cc3ccc(CN4CCC(OC)C4)cc3)co2)c(C)c1 (centres unmarked) [Ex 129, 5-({[(4-Methoxy-2,6-dimethylphenyl)sulfonyl](methyl)amino}methyl)-N-{4-[(3-methoxypyrrolidin-1-yl)methyl]benzyl}-N-methylfuran-3-carboxamide] | 100 to 1000
COc1cc(C)c(S(=O)(=O)N(Cc2cc(C(=O)N(C)CCc3ccc(C4=NCCN4)cc3)co2)C(C)C)c(C)c1 [Ex 48, N-{2-[4-(4,5-dihydro-1H-imidazol-2-yl)phenyl]ethyl}-5-({[(4-methoxy-2,6-dimethylphenyl)sulfonyl](1-methylethyl)amino}methyl)-N-methylfuran-3-carboxamide] | 10 to 100
COc1cc(C)c(S(=O)(=O)N(Cc2nnc(C(=O)N3CCN(CCCN4CCCC4)CC3)o2)C2CC2)c(C)c1 [Ex 273, N-Cyclopropyl-4-methoxy-2,6-dimethyl-N-[(5-{[4-(3-pyrrolidin-1-ylpropyl)piperazin-1-yl]carbonyl}-1,3,4-oxadiazol-2-yl)methyl]benzenesulfonamide] | < 10
COc1cc(C)c(S(=O)(=O)N(Cc2nc(C(=O)N3CCN(C4CCN(C)CC4)CC3)co2)C2CC2)c(C)c1 [Ex 165, N-Cyclopropyl-4-methoxy-2,6-dimethyl-N-[(4-{[4-(1-methylpiperidin-4-yl)piperazin-1-yl]carbonyl}-1,3-oxazol-2-yl)methyl]benzenesulfonamide] | < 10
COc1cc(C)c(S(=O)(=O)N(Cc2noc(C(=O)N3CCN(CCN4CCCC4)CC3)n2)C2CC2)c(C)c1 [Ex 318, N-Cyclopropyl-4-methoxy-2,6-dimethyl-N-[(5-{[4-(2-pyrrolidin-1-ylethyl)piperazin-1-yl]carbonyl}-1,2,4-oxadiazol-3-yl)methyl]benzenesulfonamide] | 10 to 100
COc1cc(C)c(S(=O)(=O)N(Cc2cc(C(=O)N(C)Cc3ccc(CN4CCCC(OC)C4)cc3)co2)C2CC2)c(C)c1 (centres unmarked) [Ex 144, 5-({Cyclopropyl[(4-methoxy-2,6-dimethylphenyl)sulfonyl]amino}methyl)-N-{4-[(3-methoxypiperidin-1-yl)methyl]benzyl}-N-methylfuran-3-carboxamide] | 100 to 1000
COc1cc(C)c(S(=O)(=O)N(C)Cc2nc(C(=O)NCc3ccc(CN4CCCC4)cc3)co2)c(C)c1 [Ex 72, 2-({[(4-Methoxy-2,6dimethylphenyl)sulfonyl](methyl)amino}methyl)-N-[4-(pyrrolidin-1-ylmethyl)benzyl]-1,3-oxazole-4-carboxamide] | 10 to 100
COc1cc(C)c(S(=O)(=O)N(Cc2cc(C(=O)N(C)Cc3ccc(CN4CCC(NC(C)=O)C4)cc3)co2)C2CC2)c(C)c1 (centres unmarked) [Ex 146, N-(4-{[3-(Acetylamino)pyrrolidin-1-yl]methyl}benzyl)-5-({cyclopropyl[(4-methoxy-2,6-dimethylphenyl)sulfonyl]amino}methyl)-N-methylfuran-3-carboxamide] | 100 to 1000
COc1cc(C)c(S(=O)(=O)N(Cc2nnc(C(=O)N3CCN(CC4CCN(C)CC4)CC3)s2)C2CC2)c(C)c1 [Ex 335, N-Cyclopropyl-4-methoxy-2,6-dimethyl-N-{[5-({4-[(1-methylpiperidin-4-yl)methyl]piperazin-1-yl}carbonyl)-1,3,4-thiadiazol-2-yl]methyl}benzenesulfonamide] | < 10

Second part, the compound after the results:

IC50 [nM] | SMILES
100 to 1000 | COc1cc(C)c(S(=O)(=O)N(C)Cc2cc(C(=O)N3CCN(C4CCN(C)CC4)CC3)no2)c(C)c1 [Ex 65, 4-Methoxy-N,2,6-trimethyl-N-[(3-{[4-(1-methylpiperidin-4-yl)piperazin-1-yl]carbonyl}isoxazol-5-yl)methyl]benzenesulfonamide]
< 10 | COc1cc(C)c(S(=O)(=O)N(Cc2nc(C(=O)N(C)Cc3ccc(CN4CC(O)C(O)C4)cc3)co2)C2CC2)c(C)c1 (centres unmarked) [Ex 189, 2-({Cyclopropyl[(4-methoxy-2,6-dimethylphenyl)sulfonyl]amino}methyl)-N-{4-[(3,4-dihydroxypyrrolidin-1-yl)methyl]benzyl}-N-methyl-1,3-oxazole-4-carboxamide]
< 10 | COc1cc(C)c(S(=O)(=O)N(C)Cc2noc(C(=O)N3CCN(CC4CCN(C)CC4)CC3)n2)c(C)c1 [Ex 305, 4-Methoxy-N,2,6-trimethyl-N-{[5-({4-[(1-methylpiperidin-4-yl)methyl]piperazin-1-yl}carbonyl)-1,2,4-oxadiazol-3-yl]methyl}benzenesulfonamide trifluoroacetate]
< 10 | COc1cc(C)c(S(=O)(=O)N(C)Cc2nnc(C(=O)N3CCN(Cc4ccc(Cl)nc4)CC3)o2)c(C)c1 [Ex 297, N-{[5-({4-[(6-Chloropyridin-3-yl)methyl]piperazin-1-yl}carbonyl)-1,3,4-oxadiazol-2-yl]methyl}-4-methoxy-N,2,6-trimethylbenzenesulfonamide]
100 to 1000 | COc1cc(C)c(S(=O)(=O)N(Cc2cc(C(=O)N3CCN(CCc4ccncc4)CC3)co2)C2CC2)c(C)c1 [Ex 110, N-Cyclopropyl-4-methoxy-2,6-dimethyl-N-[(4-{[4-(2-pyridin-4-ylethyl)piperazin-1-yl]carbonyl}furan-2-yl)methyl]benzenesulfonamide trifluoroacetate]
< 10 | CCN(Cc1cc(C(=O)N(C)CCc2ccc(C3=NCCN3)cc2)co1)S(=O)(=O)c1c(C)cc(OC)cc1C [Ex 47, N-{2-[4-(4,5-dihydro-1H-imidazol-2-yl)phenyl]ethyl}-5-({ethyl[(4-methoxy-2,6-dimethylphenyl)sulfonyl]amino}methyl)-N-methylfuran-3-carboxamide]
< 10 | COc1cc(C)c(S(=O)(=O)N(Cc2nc(C(=O)N3CCN(Cc4ccnc(C)c4)CC3)co2)C2CC2)c(C)c1 [Ex 252, N-Cyclopropyl-4-methoxy-2,6-dimethyl-N-{[4-({4-[(2-methylpyridin-4-yl)methyl]piperazin-1-yl}carbonyl)-1,3-oxazol-2-yl]methyl}benzenesulfonamide]
< 10 | COc1cc(C)c(S(=O)(=O)N(Cc2noc(C(=O)N(C)Cc3ccc(CN4CCCC4)cc3)n2)C2CC2)c(C)c1 [Ex 306, 3-({Cyclopropyl[(4-methoxy-2,6-dimethylphenyl)sulfonyl]amino}methyl)-N-methyl-N-[4-(pyrrolidin-1-ylmethyl)benzyl]-1,2,4-oxadiazole-5-carboxamide trifluoroacetate]
100 to 1000 | COc1cc(C)c(S(=O)(=O)N(Cc2nc(C(=O)N3CCN(c4ccncc4)CC3)co2)C2CC2)c(C)c1 [Ex 161, N-Cyclopropyl-4-methoxy-2,6-dimethyl-N-({4-[(4-pyridin-4-ylpiperazin-1-yl)carbonyl]-1,3-oxazol-2-yl}methyl)benzenesulfonamide trifluoroacetate]
100 to 1000 | COc1cc(C)c(S(=O)(=O)N(C)Cc2nc(C(=O)N(C)Cc3ccc(C[N+]4([O-])CCCC4)cc3)co2)c(C)c1 [Ex 159, 2-({[(4-Methoxy-2,6-dimethylphenyl)sulfonyl](methyl)amino}methyl)-N-methyl-N-{4-[(1-oxidopyrrolidin-1-yl)methyl]benzyl}-1,3-oxazole-4-carboxamide trifluoroacetate]
100 to 1000 | COc1cc(C)c(S(=O)(=O)N(C)Cc2cc(C(=O)NCc3ccc(CNCc4ccncc4)cc3)co2)c(C)c1 [Ex 96, 5-({[(4-Methoxy-2,6-dimethylphenyl)sulfonyl](methyl)amino}methyl)-N-(4-{[(pyridin-4-ylmethyl)amino]methyl}benzyl)furan-3-carboxamide trifluoroacetate]
